Source: patent US12031897B2, “Target-locking single-molecule nanoscopy” (Memorial Sloan Kettering Cancer Center, priority 2019, dated 2024)

Test system: Pol II (FLAG-SNAP-Rpb1) at the CMV mini-gene
Experiment: ChIP-qPCR of Pol II at the CMV mini-gene after flavopiridol treatment (U2-OS cells)
Assay type: cell-based, human
Conditions: 10 μM flavopiridol, by the 5-minute time point; clone 5 cells
Description: ChIP-qPCR analysis of Pol II after flavopiridol treatment. U2-OS cells. Fast chromatin immuno-precipitation was performed as described. Confluent 15 cm dishes (20×10^6 cells) were treated with 10 μM Flavopiridol or DMSO for the indicated times. Methanol-free formaldehyde (Thermo Fisher) was then directly added to the media to 1% v/v final concentration, and dishes were immediately placed on a rotator/shaker for 10 minutes at RT. Formaldehyde was quenched with 125 mM glycine for 5 min at RT, and cells were scraped and collected with centrifugation (2,000 g, 5 min at 4° C.) and washed twice with cold PBS. Cells were lysed in buffer IP (150 mM NaCl, 50 mM Tris-HCl pH 7.5, 5 mM EDTA, 0.5% v/v NP-40, 1.0% v/v Triton X-100) containing protease inhibitors, centrifuged (12,000 g, 1 min at 4° C.), and after one wash, the pellet was resuspended in buffer IP+protesase inhibitors. Volume equivalent to 4×10^6 cells was sonicated to shear the chromatin (Bioruptor indirect sonicator), and cleared using centrifugation (12,000 g, 10 min at 4° C.). […] Eluted chromatin was analyzed with qPCR, using primer pairs specific for different mini-gene regions (FIGS. 13I, 13J).

## CN1CC[C@H](c2c(O)cc(O)c3c(=O)cc(-c4ccccc4Cl)oc23)[C@H](O)C1 [flavopiridol]
  Pol II ChIP signal at mini-gene body and terminator regions: near-complete loss
